Each structure is given as a SMILES string.

These results are taken from US8697694B2, “Substituted pyridine and pyrimidine derivatives and their use in treating viral infections” (priority 2008, dated 2014).

The first experiment deals with HCV replicon cells. The experiment is described as follows: Cell-based HCV replicon assay (replicon RNA level by real time PCR, Taqman). The following applies: Hepatitis C virus, 72 h, HCV replicon cells, harvested day 3, replicon RNA by real time PCR; reported as range class; read-out: EC90 (μM) range. A digest of the protocol: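 HCV replicon cells treated 3 days with 10 serial 2-fold compound dilutions (top 25 μM to 1 μM; 0.5% DMSO, 10% FBS). Replicon RNA quantified by multiplex Taqman RT-PCR (NS5B amplicon, GAPDH control); EC50 and EC90 = concentrations giving ΔCT of 1 and 3.2 over baseline.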
For orientation: In antiviral work, replicon cells carry a viral genome segment that copies itself.
By EC90 is commonly meant the point of the concentration-response curve where the effect stands at 90%. For `CC(C)OCCNc1nc(Cl)c(-c2nc3ccccc3s2)c(N[C@@H]2C[C@H](CO)[C@@H](O)[C@H]2O)n1` [Example 219], the EC90 is less than 0.5 µM. For the molecule `Cc1nc(NCCOC(C)C)nc(N[C@@H]2C[C@H](CO)[C@@H](O)[C@H]2O)c1-c1nc2ccccc2s1` [Example 220], the EC90 is less than 0.5 µM. For `COCCCNc1nc(Cl)c(-c2nc3ccccc3s2)c(N[C@@H]2C[C@H](CO)[C@@H](O)[C@H]2O)n1` [Example 222], the EC90 is less than 0.5 µM. On to `COCCCNc1nc(C)c(-c2nc3ccccc3s2)c(N[C@@H]2C[C@H](CO)[C@@H](O)[C@H]2O)n1` [Example 223], for which the EC90 was less than 0.5 µM. As to `OC[C@H]1C[C@@H](Nc2nc(NCCCC(F)(F)F)nc(Cl)c2-c2nc3ccccc3s2)[C@H](O)[C@@H]1O` [Example 224], the EC90 was less than 0.5 µM. As for `Cc1nc(NCCCC(F)(F)F)nc(N[C@@H]2C[C@H](CO)[C@@H](O)[C@H]2O)c1-c1nc2ccccc2s1` [Example 225], the EC90 is less than 0.5 µM. On the same count and under the same terms, in the case of `CCCOCCNc1nc(Cl)c(-c2nc3ccccc3s2)c(N[C@@H]2C[C@H](CO)[C@@H](O)[C@H]2O)n1` [Example 226] it was less than 0.5 µM; in that of `CCCOCCNc1nc(C)c(-c2nc3ccccc3s2)c(N[C@@H]2C[C@H](CO)[C@@H](O)[C@H]2O)n1` [Example 227], less than 0.5 µM. For `CO[C@@H](C)CNc1nc(Cl)c(-c2nc3ccccc3s2)c(N[C@@H]2C[C@H](CO)[C@@H](O)[C@H]2O)n1` [Example 228], the EC90 is less than 0.5 µM. On to `CO[C@@H](C)CNc1nc(C)c(-c2nc3ccccc3s2)c(N[C@@H]2C[C@H](CO)[C@@H](O)[C@H]2O)n1` [Example 229], for which the EC90 was less than 0.5 µM.

Take `Nc1nc(Cl)c(-c2cc3cc([N+](=O)[O-])cnc3o2)c(N[C@@H]2C[C@H](CO)[C@@H](O)[C@H]2O)n1` [Example 302]: the EC90 is 0.5 to 5 µM. With `Nc1nc(Cl)c(-c2cc3c(F)cncc3o2)c(N[C@@H]2C[C@H](CO)[C@@H](O)[C@H]2O)n1` [Example 303], the EC90 was in the range of 0.5 to 5 µM.

For the molecule `Cc1cncc2oc(-c3c(Cl)nc(N)nc3N[C@@H]3C[C@H](CO)[C@@H](O)[C@H]3O)cc12` [Example 304], the EC90 is more than 5 µM. Take `Cc1nccc2cc(-c3c(Cl)nc(N)nc3N[C@@H]3C[C@H](CO)[C@@H](O)[C@H]3O)oc12` [Example 305]: the EC90 was less than 0.5 µM. Still for that read-out and setting: with `Cc1cc2cc(-c3c(Cl)nc(N)nc3N[C@@H]3C[C@H](CO)[C@@H](O)[C@H]3O)oc2cn1` [Example 306] the figure was less than 0.5 µM; with `Nc1nc(Cl)c(-c2cc3cnc(=O)[nH]c3o2)c(N[C@@H]2C[C@H](CO)[C@@H](O)[C@H]2O)n1` [Example 307], more than 5 µM. `CCc1nccc2cc(-c3c(Cl)nc(N)nc3N[C@@H]3C[C@H](CO)[C@@H](O)[C@H]3O)oc12` [Example 308]: the EC90 is less than 0.5 µM.

On to `CCc1cc2cc(-c3c(Cl)nc(N)nc3N[C@@H]3C[C@H](CO)[C@@H](O)[C@H]3O)oc2c(C)n1` [Example 309], for which the EC90 was less than 0.5 µM. For the molecule `COCc1cc2cc(-c3c(Cl)nc(N)nc3N[C@@H]3C[C@H](CO)[C@@H](O)[C@H]3O)oc2cn1` [Example 310], the concentration for an effect of 90% (EC90) was less than 0.5 µM.

With `COCc1cc2cc(-c3c(Cl)nc(N)nc3N[C@@H]3C[C@H](CO)[C@@H](O)[C@H]3O)oc2c(C)n1` [Example 311], the EC90 was less than 0.5 µM.

On to `CCCc1cc2cc(-c3c(Cl)nc(NC)nc3N[C@@H]3C[C@H](CO)[C@@H](O)[C@H]3O)oc2c(C)n1` [Example 312], for which the 90% effect concentration (EC90) is less than 0.5 µM.

Turning to `Cc1nc(N(C)C)nc(N[C@@H]2C[C@H](CO)[C@@H](O)[C@H]2O)c1-c1nc2ccccc2s1` [Example 313], the EC90 was less than 0.5 µM. Regarding `CCc1nc(N(C)C)nc(N[C@@H]2C[C@H](CO)[C@@H](O)[C@H]2O)c1-c1nc2ccccc2s1` [Example 314], the EC90 was more than 5 µM.

Regarding `CCN(C)c1nc(Cl)c(-c2nc3ccccc3s2)c(N[C@@H]2C[C@H](CO)[C@@H](O)[C@H]2O)n1` [Example 318], the EC90 is less than 0.5 µM. Take `CNc1nc(C)c(-c2nc3ccccc3s2)c(N[C@@H]2C[C@H](CO)[C@@H](O)[C@H]2O)n1` [Example 319]: the EC90 was less than 0.5 µM. On the same count and under the same terms, in the case of `CC(C)CNc1nc(Cl)c(-c2nc3ccccc3s2)c(N[C@@H]2C[C@H](CO)[C@@H](O)[C@H]2O)n1` [Example 320] it was less than 0.5 µM.

The experiment is the same for the next values; noted with them: Hepatitis C virus, 72 h, HCV replicon cells, harvested on day 3, replicon RNA by real time PCR; calculated EC90 reported as range class; read-out: EC90 (μM) range.
In the case of `CO[C@H](C)CNc1nc(Cl)c(-c2nc3ccccc3s2)c(N[C@@H]2C[C@H](CO)[C@@H](O)[C@H]2O)n1` [Example 230], the EC90 was less than 0.5 µM. On to `CO[C@H](C)CNc1nc(C)c(-c2nc3ccccc3s2)c(N[C@@H]2C[C@H](CO)[C@@H](O)[C@H]2O)n1` [Example 231], for which the EC90 was less than 0.5 µM. Still for that read-out and setting: in the case of `OC[C@H]1C[C@@H](Nc2nc(NCc3ccccc3F)nc(Cl)c2-c2nc3ccccc3s2)[C@H](O)[C@@H]1O` [Example 232] it was less than 0.5 µM; in that of `Cc1nc(NCc2ccccc2F)nc(N[C@@H]2C[C@H](CO)[C@@H](O)[C@H]2O)c1-c1nc2ccccc2s1` [Example 233], less than 0.5 µM. `OC[C@H]1C[C@@H](Nc2nc(NCc3cccc(F)c3)nc(Cl)c2-c2nc3ccccc3s2)[C@H](O)[C@@H]1O` [Example 234]: the EC90 was less than 0.5 µM. Turning to `Cc1nc(NCc2ccc(F)cc2)nc(N[C@@H]2C[C@H](CO)[C@H]3OC(C)(C)O[C@H]32)c1-c1nc2ccccc2s1` [Example 235], the EC90 was less than 0.5 µM. The same measure, in the same setting: in the case of `Cc1nc(NCc2ccccc2C(F)(F)F)nc(N[C@@H]2C[C@H](CO)[C@H]3OC(C)(C)O[C@H]32)c1-c1nc2ccccc2s1` [Example 236] it was more than 5 µM; in that of `Cc1nc(NCc2cccc(C(F)(F)F)c2)nc(N[C@@H]2C[C@H](CO)[C@H]3OC(C)(C)O[C@H]32)c1-c1nc2ccccc2s1` [Example 237], 0.5 to 5 µM. Take `Cc1nc(NCc2ccc(F)cc2)nc(N[C@@H]2C[C@H](CO)[C@@H](O)[C@H]2O)c1-c1nc2ccccc2s1` [Example 238]: the EC90 is less than 0.5 µM. With `Cc1nc(NCc2ccccc2C(F)(F)F)nc(N[C@@H]2C[C@H](CO)[C@@H](O)[C@H]2O)c1-c1nc2ccccc2s1` [Example 239], the EC90 is 0.5 to 5 µM.

In the case of `Cc1nc(NCc2cccc(C(F)(F)F)c2)nc(N[C@@H]2C[C@H](CO)[C@@H](O)[C@H]2O)c1-c1nc2ccccc2s1` [Example 240], the EC90 is less than 0.5 µM. In the case of `Cc1nc(NCc2ccc(C(F)(F)F)cc2)nc(N[C@@H]2C[C@H](CO)[C@H]3OC(C)(C)O[C@H]32)c1-c1nc2ccccc2s1` [Example 241], the EC90 is 0.5 to 5 µM.

For `Cc1nc(NCc2ccc(C(F)(F)F)cc2)nc(N[C@@H]2C[C@H](CO)[C@@H](O)[C@H]2O)c1-c1nc2ccccc2s1` [Example 242], the EC90 is less than 0.5 µM. In the case of `Cc1nc(NCc2cccc(F)c2)nc(N[C@@H]2C[C@H](CO)[C@H]3OC(C)(C)O[C@H]32)c1-c1nc2ccccc2s1` [Example 243], the EC90 was less than 0.5 µM. Same read-out and setting: in the case of `Cc1nc(NCc2cccc(F)c2)nc(N[C@@H]2C[C@H](CO)[C@@H](O)[C@H]2O)c1-c1nc2ccccc2s1` [Example 244] it was less than 0.5 µM; in that of `Cc1nc(NCCN(C)C)nc(N[C@@H]2C[C@H](CO)[C@H]3OC(C)(C)O[C@H]32)c1-c1nc2ccccc2s1` [Example 245], more than 5 µM. With `Cc1nc(NCCN(C)C)nc(N[C@@H]2C[C@H](CO)[C@@H](O)[C@H]2O)c1-c1nc2ccccc2s1` [Example 246], the 90% effect concentration (EC90) is more than 5 µM. On to `Cc1nc(NCC(F)(F)F)nc(N[C@@H]2C[C@H](CO)[C@@H](O)[C@H]2O)c1-c1nc2cc(N(C)C)ccc2s1` [Example 247], for which the EC90 was less than 0.5 µM. Take `Cc1nc(NCCN2CCOCC2)nc(N[C@@H]2C[C@H](CO)[C@H]3OC(C)(C)O[C@H]32)c1-c1nc2ccccc2s1` [Example 248]: the EC90 was less than 0.5 µM.

Consider `Cc1nc(NCCNC(=O)NC(C)(C)C)nc(N[C@@H]2C[C@H](CO)[C@H]3OC(C)(C)O[C@H]32)c1-c1nc2ccccc2s1` [Example 249], for which the EC90 is more than 5 µM. In the case of `Cc1nc(NCCNC(=O)NC(C)(C)C)nc(N[C@@H]2C[C@H](CO)[C@@H](O)[C@H]2O)c1-c1nc2ccccc2s1` [Example 250], the EC90 was 0.5 to 5 µM. Regarding `OC[C@H]1C[C@@H](Nc2nc(NCc3ccc(F)cc3)nc(Cl)c2-c2nc3ccccc3s2)[C@H](O)[C@@H]1O` [Example 251], the EC90 was less than 0.5 µM. Turning to `Cc1nc(NCCN2CCOCC2)nc(N[C@@H]2C[C@H](CO)[C@@H](O)[C@H]2O)c1-c1nc2ccccc2s1` [Example 252], the EC90 is less than 0.5 µM. As to `Cc1nc(NCCNC(=O)OCc2ccccc2)nc(N[C@@H]2C[C@H](CO)[C@H]3OC(C)(C)O[C@H]32)c1-c1nc2ccccc2s1` [Example 253], the EC90 was 0.5 to 5 µM.

Take `Cc1nc(NCCNC(=O)OCc2ccccc2)nc(N[C@@H]2C[C@H](CO)[C@@H](O)[C@H]2O)c1-c1nc2ccccc2s1` [Example 254]: the EC90 was 0.5 to 5 µM. Regarding `CCOC(=O)NCCNc1nc(C)c(-c2nc3ccccc3s2)c(N[C@@H]2C[C@H](CO)[C@H]3OC(C)(C)O[C@H]32)n1` [Example 255], the EC90 is less than 0.5 µM.

For `CCOC(=O)NCCNc1nc(C)c(-c2nc3ccccc3s2)c(N[C@@H]2C[C@H](CO)[C@@H](O)[C@H]2O)n1` [Example 256], the EC90 was less than 0.5 µM. Consider `Cc1nc(NCCNS(C)(=O)=O)nc(N[C@@H]2C[C@H](CO)[C@H]3OC(C)(C)O[C@H]32)c1-c1nc2ccccc2s1` [Example 257], for which the EC90 is less than 0.5 µM. Consider `Cc1nc(NCCNS(C)(=O)=O)nc(N[C@@H]2C[C@H](CO)[C@@H](O)[C@H]2O)c1-c1nc2ccccc2s1` [Example 258], for which the EC90 is 0.5 to 5 µM. For the molecule `CCOCCNc1nc(C)c(-c2nc3cc(NC)ccc3s2)c(N[C@@H]2C[C@H](CO)[C@@H](O)[C@H]2O)n1` [Example 259], the EC90 is less than 0.5 µM. Consider `CNc1ccc2sc(-c3c(C)nc(NCC(F)(F)F)nc3N[C@@H]3C[C@H](CO)[C@@H](O)[C@H]3O)nc2c1` [Example 260], for which the EC90 is less than 0.5 µM.
